# Results reported in article PMC12096242 (ACS Omega, 2025).
# Target: T1, TcGLIP (MBP-TcGLIP) (Tanacetum cinerariifolium, UniProt H6U1I8)
# T1 sequence (H6U1I8 28-365): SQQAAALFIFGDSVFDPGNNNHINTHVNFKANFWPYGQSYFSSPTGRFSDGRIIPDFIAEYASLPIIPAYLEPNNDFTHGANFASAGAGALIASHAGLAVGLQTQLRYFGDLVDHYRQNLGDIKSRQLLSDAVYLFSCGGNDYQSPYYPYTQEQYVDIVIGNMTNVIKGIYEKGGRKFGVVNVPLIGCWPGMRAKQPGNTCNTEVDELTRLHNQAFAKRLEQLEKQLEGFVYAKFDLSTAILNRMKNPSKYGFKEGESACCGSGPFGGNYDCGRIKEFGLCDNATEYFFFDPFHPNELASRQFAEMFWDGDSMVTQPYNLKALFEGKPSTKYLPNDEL
# Test: HPLC
row,Structure (SMILES),IC50
1,"CC/C=C\CC1=C(C)[C@@H](O[P@@](=O)(CCCCCCCC)Oc2ccc([N+](=O)[O-])cc2)CC1=O [6a, (S)p, (S)c-2-Methyl-4-oxo-3-((Z)-2-penten-1-yl)cyclopent-2-en-1-yl 4-Nitrophenyl n-Octylphosphonate]",309 nM
2,"CC/C=C\CC1=C(C)[C@@H](O[P@](=O)(CCCCCCCC)Oc2ccc([N+](=O)[O-])cc2)CC1=O [6b, (R)p, (S)c-2-Methyl-4-oxo-3-((Z)-2-penten-1-yl)cyclopent-2-en-1-yl 4-Nitrophenyl n-Octylphosphonate]",38 nM
3,"C/C=C\CC1=C(C)[C@@H](O[P@](=O)(CCCCC)Oc2ccc([N+](=O)[O-])cc2)CC1=O [2b, (R)p, (S)c-2-Methyl-4-oxo-3-((Z)-2-buten-1-yl)cyclopent-2-en-1-yl 4-Nitrophenyl n-Pentylphosphonate]",347 nM
4,C=C/C=C\CC1=C(C)[C@@H](O[P@](=O)(CCCCC)Oc2ccc([N+](=O)[O-])cc2)CC1=O [1b],245 nM
5,"CC/C=C\CC1=C(C)[C@@H](O[P@](=O)(CCCCC)Oc2ccc([N+](=O)[O-])cc2)CC1=O [3b, (R)p, (S)c-2-Methyl-4-oxo-3-((Z)-2-penten-1-yl)cyclopent-2-en-1-yl 4-Nitrophenyl n-Pentylphosphonate]",316 nM
6,C=C/C=C\CC1=C(C)[C@@H](O[P@](=O)(CCCCCCCC)Oc2ccc([N+](=O)[O-])cc2)CC1=O [4b],14.1 nM
7,"C/C=C\CC1=C(C)[C@@H](O[P@@](=O)(CCCCC)Oc2ccc([N+](=O)[O-])cc2)CC1=O [2a, (S)p, (S)c-2-Methyl-4-oxo-3-((Z)-2-buten-1-yl)cyclopent-2-en-1-yl 4-Nitrophenyl n-Pentylphosphonate]",29.5 nM
8,C=C/C=C\CC1=C(C)[C@@H](O[P@@](=O)(CCCCCCCC)Oc2ccc([N+](=O)[O-])cc2)CC1=O [4a],69.2 nM
9,C=C/C=C\CC1=C(C)[C@@H](O[P@@](=O)(CCCCC)Oc2ccc([N+](=O)[O-])cc2)CC1=O [1a],23.4 nM
10,"C/C=C\CC1=C(C)[C@@H](O[P@](=O)(CCCCCCCC)Oc2ccc([N+](=O)[O-])cc2)CC1=O [5b, (R)p, (S)c-2-Methyl-4-oxo-3-((Z)-2-buten-1-yl)cyclopent-2-en-1-yl 4-Nitrophenyl n-Octylphosphonate]",27.5 nM
11,"C/C=C\CC1=C(C)[C@@H](O[P@@](=O)(CCCCCCCC)Oc2ccc([N+](=O)[O-])cc2)CC1=O [5a, (S)p, (S) c-2-Methyl-4-oxo-3-((Z)-2-buten-1-yl)cyclopent-2-en-1-yl 4-Nitrophenyl n-Octylphosphonate]",120 nM
12,"CC/C=C\CC1=C(C)[C@@H](O[P@@](=O)(CCCCC)Oc2ccc([N+](=O)[O-])cc2)CC1=O [3a, (S)p, (S)c-2-Methyl-4-oxo-3-((Z)-2-penten-1-yl)cyclopent-2-en-1-yl 4-Nitrophenyl n-Pentylphosphonate]",40.7 nM
